The results in this text go back to ChEMBL document CHEMBL1158755, “Bromophenols coupled with derivatives of amino acids and nucleosides from the red alga Rhodomela confervoides” (J Nat Prod, 2005).

In one assay the test system is BGC-823. The assay is described as follows: Cytotoxicity against human BGC823 cells by MTT assay. The format is functional, cell-based. (In general: Tetrazolium dyes change colour on reduction, which living cells bring about.)
A further assay has as its system A549. The assay is described as follows: Cytotoxicity against human A549 cells by MTT assay. The format is functional, cell-based.
In another assay the test system is Escherichia coli. The assay is described as follows: Antibacterial activity against Escherichia coli. The assay is classed as functional.
The subject of the next assay is Bel-7402. The assay is described as follows: Cytotoxicity against human Bel7402 cells by MTT assay. The assay is classed as functional, cell-based.
Another assay deals with Candida albicans. The assay is described as follows: Antifungal activity against Candida albicans after 24 hrs. The assay is classed as functional.
For the next assay, the system named is Staphylococcus aureus. The assay is described as follows: Antibacterial activity against Staphylococcus aureus. The format is functional.
The next assay deals with MCF7. The assay is described as follows: Cytotoxicity against human MCF7 cells by MTT assay. The assay is classed as functional, cell-based.
In a further assay the test system is HCT-8. The assay is described as follows: Cytotoxicity against human HCT8 cells by MTT assay. The format is functional, cell-based.

The structures appear in SMILES notation. Where only a bound is given, the exact number is not on record here.

In the case of `COC(=O)C1CCC(=O)N1Cc1cc(O)c(O)c(Br)c1Cc1cc(O)c(O)c(Br)c1Br` (configuration not stated), the concentration for half-maximal inhibition (IC50) with BGC-823, in the assay on A549, in the assay with Bel-7402, in the assay on MCF7 and in the assay with HCT-8 was greater than 10 µg/mL each time. For the same compound, the MIC50 in the assay on Escherichia coli, in the assay on Candida albicans and against Staphylococcus aureus was greater than 100 µg/mL each time.

As to `COC(=O)C1CCC(=O)N1Cc1cc(O)c(O)c(Br)c1Br` (configuration not stated), the IC50 in the assay on BGC-823, in the assay with A549, in the assay on Bel-7402, in the assay on MCF7 and in the assay on HCT-8 was greater than 10 µg/mL in each case. In addition, the MIC50 against Escherichia coli, in the assay with Candida albicans and in the assay with Staphylococcus aureus was greater than 100 µg/mL each time.

`OC[C@H]1O[C@@H](n2cnc3cnc(NCc4cc(O)c(O)c(Br)c4Br)nc32)[C@H](O)[C@@H]1O`: the IC50 with BGC-823, with A549, in the assay on Bel-7402, with MCF7 and in the assay on HCT-8 was greater than 10 µg/mL each time. Besides, the MIC50 against Escherichia coli, against Candida albicans and against Staphylococcus aureus was greater than 100 µg/mL throughout.

On to `O=C(O)C1CCC(=O)N1Cc1cc(O)c(O)c(Br)c1Br` (configuration not stated), for which the IC50 with BGC-823, in the assay with A549, with Bel-7402, in the assay with MCF7 and in the assay with HCT-8 was greater than 10 µg/mL in each case. Besides, the MIC50 in the assay on Escherichia coli, in the assay on Candida albicans and in the assay with Staphylococcus aureus was greater than 100 µg/mL in each case.

By IC50 is commonly meant the concentration that inhibits the measured activity by half. Read a low IC50 as greater potency. The MIC50 is the lowest concentration that inhibits either 50% of growth or 50% of the strains tested, depending on the study. Read a low MIC50 as greater potency.
